# Source: the supplement of paper PMC4862054
# Assays:
# Settings in all cases: incubation time: 72 h
# [1] = test system: CAL-85-1; test: normalised viability (% of control), CellTiter-Blue; higher = more viable cells (about 100 = DMSO control)
# Method: (§1)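 DSRT, CellTiter-Blue viability, 72 h incubation. Signal is normalised to DMSO and benzethonium chloride controls. Value is the normalised response at dose 7.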
# [2] = test system: DU-4475; test: as above
# Method: as §1
# [3] = test system: CAL-51; test: as above
# Method: as §1
# [4] = test system: MDA-MB-453; test: as above
# Method: as §1
# [5] = test system: HDQ-P1; test: as above
# Method: as §1
# [6] = test system: CAL-148; test: as above
# Method: as §1
# [7] = test system: BT-474; test: normalised response (% of control), CellTox Green; higher = less cell death (100 = DMSO, 0 = benzethonium chloride kill control)
# How it was run: (§2)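 Normalised signals at single concentrations make up the values. They come from breast cancer cell lines seeded (20 µl suspension) into 384-well plates with compound at 5 concentrations in 10-fold steps over a compound-specific 10,000-fold range, incubated 72 h, and read for CellTox Green fluorescence then CellTiter-Glo luminescence. Each plate was normalised to 0.1 % DMSO (100) and a positive kill control (0).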
# [8] = test system: CAL-85-1; test: as above
# How it was run: as §2
# [9] = test system: MDA-MB-436; test: as above
# How it was run: as §2
# [10] = test system: DU-4475; test: as above
# How it was run: as §2
# [11] = test system: CAL-51; test: as above
# How it was run: as §2
# [12] = test system: BT-549; test: as above
# How it was run: as §2
# [13] = test system: MDA-MB-468; test: as above
# How it was run: as §2
# [14] = test system: MCF-10A; test: as above
# How it was run: as §2
# [15] = test system: MDA-MB-453; test: as above
# How it was run: as §2
# [16] = test system: MDA-MB-231; test: as above
# How it was run: as §2
# [17] = test system: Hs578T; test: as above
# How it was run: as §2
# [18] = test system: HCC1143; test: as above
# How it was run: as §2
# [19] = test system: HCC1937; test: as above
# How it was run: as §2
# [20] = test system: HDQ-P1; test: as above
# How it was run: as §2
# [21] = test system: HCC1599; test: as above
# How it was run: as §2
# [22] = test system: CAL-120; test: as above
# How it was run: as §2
# [23] = test system: MFM-223; test: as above
# How it was run: as §2
# [24] = test system: CAL-148; test: as above
# How it was run: as §2
# [25] = test system: BT-474; test: normalised response (% of control), CellTiter-Glo; higher = more viable cells (100 = DMSO, 0 = benzethonium chloride kill control)
# Method: (§3)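 DSRT, 72 h incubation, CellTox Green / CellTiter-Glo readout. Signal is normalised to DMSO and benzethonium chloride controls. Value is the normalised response at the highest dose.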
# [26] = test system: CAL-85-1; test: as above
# Method: as §3
# [27] = test system: MDA-MB-436; test: as above
# Method: as §3
# [28] = test system: DU-4475; test: as above
# Method: as §3
# [29] = test system: CAL-51; test: as above
# Method: as §3
# [30] = test system: BT-549; test: as above
# Method: as §3
# [31] = test system: SK-BR-3; test: as above
# Method: as §3
# [32] = test system: MDA-MB-468; test: as above
# Method: as §3
# [33] = test system: MCF-10A; test: as above
# Method: as §3
# [34] = test system: MDA-MB-453; test: as above
# Method: as §3
# [35] = test system: MDA-MB-231; test: as above
# Method: as §3
# [36] = test system: Hs578T; test: as above
# Method: as §3
# [37] = test system: HCC1143; test: as above
# Method: as §3
# [38] = test system: HCC1937; test: as above
# Method: as §3
# [39] = test system: HDQ-P1; test: as above
# Method: as §3
# [40] = test system: HCC1599; test: as above
# Method: as §3
# [41] = test system: CAL-120; test: as above
# Method: as §3
# [42] = test system: MFM-223; test: as above
# Method: as §3
# [43] = test system: CAL-148; test: as above
# Method: as §3
compound,measurement,setting,value
CCN(CC)CCCC(C)Nc1ccnc2cc(Cl)ccc12 (configuration not stated) [Chloroquine] (99 nM),normalised viability,[1],81.9%
same,normalised viability,[2],110%
same,normalised viability,[3],91%
same,normalised viability,[4],99.7%
same,normalised viability,[5],132%
same,normalised viability,[6],99.1%
O=[N+]([O-])c1ccc2c(c1)S(=O)(=O)C=C2 [Stattic] (50000 nM),normalised response,[7],8.89%
same,normalised response,[8],-51.7%
same,normalised response,[9],-15.2%
same,normalised response,[10],82.3%
same,normalised response,[11],34.1%
same,normalised response,[12],-34.2%
same,normalised response,[13],-81.1%
same,normalised response,[14],-24.7%
same,normalised response,[15],17.2%
same,normalised response,[16],-17.4%
same,normalised response,[17],-12.9%
same,normalised response,[18],-42.8%
same,normalised response,[19],-18.2%
same,normalised response,[20],27.2%
same,normalised response,[21],65%
same,normalised response,[22],27.8%
same,normalised response,[23],30.1%
same,normalised response,[24],25.6%
same,normalised response,[25],0.34%
same,normalised response,[26],-0.24%
same,normalised response,[27],-0.02%
same,normalised response,[28],0.04%
same,normalised response,[29],0.17%
same,normalised response,[30],-0.12%
same,normalised response,[31],0.32%
same,normalised response,[32],0.18%
same,normalised response,[33],0.13%
same,normalised response,[34],0.25%
same,normalised response,[35],-0.2%
same,normalised response,[36],0.3%
same,normalised response,[37],0.27%
same,normalised response,[38],0.16%
same,normalised response,[39],0.11%
same,normalised response,[40],0.17%
same,normalised response,[41],-0.12%
same,normalised response,[42],0.11%
same,normalised response,[43],0.45%
CC(C)n1cnc2c(NCCc3ccc(O)cc3)nc(-c3csc4ccccc34)nc21 [StemRegenin 1] (10000 nM),normalised response,[7],85.5%
same,normalised response,[8],78.5%
same,normalised response,[9],103%
same,normalised response,[10],98.1%
same,normalised response,[11],122%
same,normalised response,[12],94.6%
same,normalised response,[13],130%
same,normalised response,[14],118%
same,normalised response,[15],87.5%
same,normalised response,[16],100%
same,normalised response,[17],-20%
same,normalised response,[18],70.8%
same,normalised response,[19],91.1%
same,normalised response,[20],84.8%
same,normalised response,[21],102%
same,normalised response,[22],103%
same,normalised response,[23],28.5%
same,normalised response,[24],104%
same,normalised response,[25],71.4%
same,normalised response,[26],78.2%
same,normalised response,[27],74%
same,normalised response,[28],89.3%
same,normalised response,[29],107%
same,normalised response,[30],76.4%
same,normalised response,[31],68.3%
same,normalised response,[32],47.5%
same,normalised response,[33],97.7%
same,normalised response,[34],76.1%
same,normalised response,[35],85.3%
same,normalised response,[36],76.3%
same,normalised response,[37],93.6%
same,normalised response,[38],58.9%
same,normalised response,[39],76.9%
same,normalised response,[40],61.6%
same,normalised response,[41],89.2%
same,normalised response,[42],59.2%
same,normalised response,[43],102%
CN(Cc1cnc2nc(N)nc(N)c2n1)c1ccc(C(=O)N[C@@H](CCC(=O)O)C(=O)O)cc1 [Methotrexate] (1000 nM),normalised viability,[1],57.4%
same,normalised viability,[2],110%
same,normalised viability,[3],42.5%
same,normalised viability,[4],84.2%
same,normalised viability,[5],77.6%
same,normalised viability,[6],67.8%
COc1c2occc2cc2ccc(=O)oc12 [Methoxsalen] (1000 nM),normalised viability,[1],104%
same,normalised viability,[2],112%
same,normalised viability,[3],100%
same,normalised viability,[4],97.9%
same,normalised viability,[5],96.9%
same,normalised viability,[6],106%
